Reference: US12384775B2, “Pyrimid-2-yl-pyrazole compounds as IRAK inhibitors” (Rigel Pharmaceuticals, Inc., priority 2022, dated 2025)

Tests used:
[1] = system: Gardiquimod-Induced IL-6 in Human Blood; assay: Gardiquimod-induced IL-6 in human whole blood; format: cell-based; details: Gardiquimod 4 μg/ml overnight, read-out: Human Whole Blood Assays (IC5050), IL-6 Gard
Experimental: (§1) To assess the effect of whole blood on the potency of compound I-1 and Comparison-1, the compounds were evaluated for their inhibitory potential on TLR dependent cytokine release in human blood. Freshly drawn peripheral blood from healthy volunteers was incubated with test compound and stimulated overnight with LPS or Gardiquimod. The serum was isolated after centrifugation and TNF-α and IL-6 were measured by ELISA.
Whole blood of healthy volunteers was collected in Vacutainer containing Sodium Heparin and 40 μL of blood was plated to each well. Compound was serially diluted in DMSO from 2 mM in 3-fold dilutions, and then diluted 1:100 in media with 10% FBS. 50 μL of 2× compound per well in duplicate was added to each well and incubated for one hour. 10 μL Gardiquimod was added to each well at a final concentration of 4 μg/ml and cells were incubated overnight.
100 μL of PBS was added to each well and centrifuged for 10 minutes at 1000 RPM 25 μL of supernatant were taken, and IL-6 was measured by Luminex Flexmap 3d.

[2] = system: TLR- and IL-1R-dependent cytokine production; assay: Cell assays, average of IL-23 (THP-1), TNFα (PBMC), TNFα (DC); format: cell-based; details: Homo sapiens, average of the three cell assays
Description: To evaluate the effect of compound I-1 on TLR and IL-1R-dependent cytokine release, multiple cell types were isolated and stimulated in the presence of compound I-1 or Comparison-1.

[3] = system: LPS Induced TNF-α in Human Blood; assay: LPS induced TNF-α in human whole blood; format: cell-based; details: LPS 0.5 ng/ml overnight, read-out: Human Whole Blood Assays (IC5050), TNFα LPS
Experimental: as §1
Whole blood of healthy volunteers was collected in Vacutainer containing Sodium Heparin and plate 40 μL of blood to each well. Compound was serially diluted in DMSO from 2 mM in 3-fold dilutions, and then diluted 1:100 in media with 10% FBS. 50 μL of 2× compound was added per well in duplicate to each well and incubate for one hour. 10 μL LPS was added to each well at a final concentration of 0.5 ng/ml and allow cells to incubate overnight.
100 μL of PBS was added to each well and centrifuged for 10 minutes at 1000 RPM. 25 μL of supernatant were taken, and TNF-α was measured on Luminex Flexmap 3d.

[4] = molecular target: T1, IRAK4 (Homo sapiens, UniProt Q9NWZ3); assay: IRAK4 ADP-Glo kinase assay; format: biochemical; details: for IC50: n >= 3
T1 construct: purchased Signalchem I12-10G-20
T1 sequence (Q9NWZ3 1-460): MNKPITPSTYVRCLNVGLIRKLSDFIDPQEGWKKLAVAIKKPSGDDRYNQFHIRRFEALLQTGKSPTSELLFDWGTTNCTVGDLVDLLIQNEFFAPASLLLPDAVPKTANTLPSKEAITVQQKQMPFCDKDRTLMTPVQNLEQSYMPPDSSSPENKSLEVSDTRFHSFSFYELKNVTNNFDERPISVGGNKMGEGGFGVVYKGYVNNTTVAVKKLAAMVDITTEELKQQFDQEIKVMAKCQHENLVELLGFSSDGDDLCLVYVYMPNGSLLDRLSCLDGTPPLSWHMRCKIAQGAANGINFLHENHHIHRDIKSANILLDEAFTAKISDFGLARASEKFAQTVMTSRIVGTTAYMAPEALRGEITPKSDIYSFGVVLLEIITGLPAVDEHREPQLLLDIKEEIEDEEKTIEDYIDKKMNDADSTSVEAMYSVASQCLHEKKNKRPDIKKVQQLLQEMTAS
Experimental: The ADP-Glo™ reagents were thawed at ambient temperature. The Kinase Detection Reagent was prepared by mixing kinase detection buffer with the lyophilized kinase detection substrate, and set aside.
A stock volume of 5× Reaction Kinase Buffer was made with a final concentration of 100 mM MgCl2, 200 mM Tris-HCl, and 0.5 mg/ml of BSA, in distilled H2O with a final pH7.4. A 2× working stock volume of Reaction Kinase Buffer was made containing a final concentration of 100 μM DTT.
The components of IRAK4 Enzyme were thawed on ice. Diluted IRAK4 in 1× Kinase Reaction Buffer (diluted from 2× buffer) was prepared at […]. A 250 μM working stock ATP Assay Solution was prepared in 1× Kinase Reaction Buffer (diluted from 2× buffer).
The compound was diluted in DMSO from 250 µM in 4-fold series dilutions for 8 points. Then diluted 1:5 in 2× Reaction Buffer in a 96 well plate. 1.0 μl was transferred to a 384 well plate in duplicate. […] 1 μl of 1 mg/ml stock solution of MBP substrate was added NOTE: MBP can be combined with ATP mix with equal volume and then added at 2 μl/well. Final reaction volume was 5 μl. The plate was centrifuged and the reaction mixture was incubated at room temperature for 60 minutes or at 30° C. for 30 minutes.
The reaction was terminated and the remaining ATP was depleted by adding 5 μl of ADP-Glo™ Reagent. The 384-well plate was centrifuged and then the reaction mixture was incubated for another 40 minutes at ambient temperature.
10 μl of the Kinase Detection Reagent was added. The plate was centrifuged and then the reaction mixture was incubated for another 30 minutes at ambient temperature.
The 384-well reaction plate was read using the WALLAC plate reader (Luminescence 0.1s).

[5] = system: TLR7-Induced TNF-α in Human Peripheral Blood Mononuclear Cells (PBMC); assay: TLR7-induced TNF-α in human PBMC (resiquimod); format: cell-based; details: resiquimod 0.1 μg/ml, read-out: Cell Assays IC50, TNFα (PBMC, resiquimod)
Experimental: Human peripheral blood mononuclear cells (PBMC) were seeded at 100,000 cells per well in 100 μL of RPMI with 10% FCS and primed overnight with 8 ng/ml of IFN-β at 37° C., 5% CO2. Compound was serially diluted in DMSO from 2 mM in 3-fold dilutions, and then diluted 1:100 in RPMI 1640 complete media with 10% FBS (2× stock). The PBMCs were pre-incubated with test compound for 1 hour at 37° C., 5% CO2 by adding 100 μL of RPMI media containing 2× concentrated test compound per well (0.5% final DMSO concentration).
The PBMCs were stimulated with resiquimod (10 μL per well of 21× concentrated resiquimod solution in RPMI media to give a final concentration of 0.1 μg/ml) at 37° C., 5% CO2 for an additional 18 hours. 100 μL of supernatant per well was harvested to measure TNF-α. TNF-α was quantitated using DuoSet ELISA Kit per manufacturer's protocol.

Row | SMILES | IC50 [1] | IC50 [2] | IC50 [3] | IC50 [4] | IC50 [5] | EC50 ([4]; read-out: IRAK4 ADP-Glo Kinase, 8 pt EC50)
1 | CCO[C@H]1CC[C@H](n2cc(NC(=O)c3csc(-c4cn[nH]c4)n3)c(-c3nc(F)ccc3F)n2)CC1 [Comparison-1, reference compound] | 1400 nM | 32 nM | 1400 nM | 6 ± 6 nM | 15 nM | 
2 | CCO[C@H]1CC[C@H](n2cc(NC(=O)c3csc(-c4cn[nH]c4)n3)c(-c3ncccn3)n2)CC1 [Compound I-1, N-(1-((1r,4r)-4-ethoxycyclohexyl)-3-(pyrimidin-2-yl)-1H-pyrazol-4-yl)-2-(1H-pyrazol-4-yl)thiazole-4-carboxamide] | 124 nM | 5 nM | 224 nM | 7 ± 4 nM | 3 nM | 7 nM
